# Data published in patent US20230365592A1 (Agios Pharmaceuticals, Inc., priority 2022, published 2023).
# Target: T1, human PAH with the R408W mutation (Homo sapiens, UniProt P00439, R408W)
# T1 construct: expressed in transfected cells
# T1 sequence (P00439 1-452 R408W): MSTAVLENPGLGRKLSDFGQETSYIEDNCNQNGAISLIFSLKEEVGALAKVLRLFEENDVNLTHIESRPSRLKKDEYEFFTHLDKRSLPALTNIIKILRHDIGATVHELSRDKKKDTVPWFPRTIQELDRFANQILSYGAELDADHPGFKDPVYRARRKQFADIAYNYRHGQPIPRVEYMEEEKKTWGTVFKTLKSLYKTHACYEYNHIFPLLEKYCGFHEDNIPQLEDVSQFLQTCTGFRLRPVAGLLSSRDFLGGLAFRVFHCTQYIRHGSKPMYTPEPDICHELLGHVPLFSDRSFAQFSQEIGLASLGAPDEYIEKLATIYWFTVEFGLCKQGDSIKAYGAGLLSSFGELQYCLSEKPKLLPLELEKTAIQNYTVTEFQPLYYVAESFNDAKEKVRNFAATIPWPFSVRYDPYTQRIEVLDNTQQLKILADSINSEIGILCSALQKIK
# Assay: Cell Based Phenylalanine Flux Assay;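 further: after compound treatment, cells received sepiapterin plus isotope-labelled Phenylalanine for 4 hours, then labelled Tyrosine in the medium was quantified, 10-point 2-fold dilution series run in duplicate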
# Settings: A375 cells expressing human R408W PAH; 24 hrs compound incubation; 13C-Tyrosine by LC-MS; average where tested multiple times; read-out: AC50
# Method: Compounds were resuspended in DMSO, and 2-fold serial dilutions were performed to generate a 10-point dose curve. Compounds were added to plated cells in a total volume of 100 µl, and a final DMSO concentration of 0.5%. Each compound was tested in duplicate. Following compound addition, cells were placed in a 5% CO2, 37° C. tissue culture incubator for 24 hrs. After the incubation period, 20 µM sepiapterin and 800 µM 13C9,15N-Phenylalanine were added. After 4 hours, cell media was removed. An aliquot of 10 µl of cell media was combined with 200 µl of extraction buffer (80% acetonitrile/20% H2O) for each well. Determination of ^13C-Tyrosine concentration was assessed by liquid chromatography mass spectrometry.
# Where a compound was tested multiple times, the average value of the tests is reported.
row,Compound,AC50 [nM]
1,"O=C(c1ccnn1C(F)F)N1CCc2[nH]cnc2[C@H]1c1cc2cccc(Cl)n2n1 [Example 1064, (S)-(4-(7-chloropyrazolo[1,5-a]pyridin-2-yl)-6,7-dihydro-1H-imidazo[4,5-c]pyridin-5(4H)-yl)(1-(difluoromethyl)-1H-pyrazol-5-yl)methanone]",500 to 1000
2,"Cn1cc(-c2nnc(C(=O)N3CCc4[nH]cnc4[C@H]3c3cc4cccc(Cl)n4n3)o2)cn1 [Example 1066, (S)-(4-(7-chloropyrazolo[1,5-a]pyridin-2-yl)-6,7-dihydro-1H-imidazo[4,5-c]pyridin-5(4H)-yl)(5-(1-methyl-1H-pyrazol-4-yl)-1,3,4-oxadiazol-2-yl)methanone]",< 500
3,"O=C(c1ocnc1C(F)F)N1CCc2[nH]cnc2[C@H]1c1cc2ccc(F)cn2n1 [Example 1068, (S)-(4-(difluoromethyl)oxazol-5-yl)(4-(6-fluoropyrazolo[1,5-a]pyridin-2-yl)-6,7-dihydro-1H-imidazo[4,5-c]pyridin-5(4H)-yl)methanone]",< 500
4,"O=C(c1ocnc1C(F)F)N1CCc2[nH]cnc2[C@@H]1c1cc2ccc(F)cn2n1 [Example 1069, (R)-(4-(difluoromethyl)oxazol-5-yl)(4-(6-fluoropyrazolo[1,5-a]pyridin-2-yl)-6,7-dihydro-1H-imidazo[4,5-c]pyridin-5(4H)-yl)methanone]",1000 to 5000
5,"CC(C)(O)c1nc(C(F)F)c(C(=O)N2CCc3[nH]cnc3[C@H]2c2cc3ccc(F)cn3n2)o1 [Example 1070, (S)-(4-(difluoromethyl)-2-(2-hydroxypropan-2-yl)oxazol-5-yl)(4-(6-fluoropyrazolo[1,5-a]pyridin-2-yl)-6,7-dihydro-1H-imidazo[4,5-c]pyridin-5(4H)-yl)methanone]",< 500
6,"CC(C)(O)c1nc(C(F)F)c(C(=O)N2CCc3[nH]cnc3[C@@H]2c2cc3ccc(F)cn3n2)o1 [Example 1071, (R)-(4-(difluoromethyl)-2-(2-hydroxypropan-2-yl)oxazol-5-yl)(4-(6-fluoropyrazolo[1,5-a]pyridin-2-yl)-6,7-dihydro-1H-imidazo[4,5-c]pyridin-5(4H)-yl)methanone]",> 5000
7,"Cn1nc(C2CC2)nc1C(=O)N1CCc2[nH]cnc2[C@H]1c1cc2c(Cl)cccn2n1 [Example 1072, (S)-(4-(4-chloropyrazolo[1,5-a]pyridin-2-yl)-6,7-dihydro-1H-imidazo[4,5-c]pyridin-5(4H)-yl)(3-cyclopropyl-1-methyl-1H-1,2,4-triazol-5-yl)methanone]",500 to 1000
8,"CC(C)(O)c1nc(C(F)F)c(C(=O)N2CCc3[nH]cnc3[C@H]2c2cc3cc(F)ccn3n2)o1 [Example 1084, (S)-(4-(difluoromethyl)-2-(2-hydroxypropan-2-yl)oxazol-5-yl)(4-(5-fluoropyrazolo[1,5-a]pyridin-2-yl)-6,7-dihydro-1H-imidazo[4,5-c]pyridin-5(4H)-yl)methanone]",< 500
9,"CC(C)(O)c1nc(C(F)F)c(C(=O)N2CCc3[nH]cnc3[C@@H]2c2cc3cc(F)ccn3n2)o1 [Example 1085, (R)-(4-(difluoromethyl)-2-(2-hydroxypropan-2-yl)oxazol-5-yl)(4-(5-fluoropyrazolo[1,5-a]pyridin-2-yl)-6,7-dihydro-1H-imidazo[4,5-c]pyridin-5(4H)-yl)methanone]",1000 to 5000
10,"Cc1cccc2cc([C@@H]3c4nc[nH]c4CCN3C(=O)c3nc(Cl)nn3C)nn12 [Example 1086, (S)-(3-chloro-1-methyl-1H-1,2,4-triazol-5-yl)(4-(7-methylpyrazolo[1,5-a]pyridin-2-yl)-6,7-dihydro-1H-imidazo[4,5-c]pyridin-5(4H)-yl)methanone]",< 500
11,"O=C(c1ccnn1C(F)F)N1CCc2[nH]cnc2[C@H]1c1cc2ccc(F)cn2n1 [Example 1088, (S)-(1-(difluoromethyl)-1H-pyrazol-5-yl)(4-(6-fluoropyrazolo[1,5-a]pyridin-2-yl)-6,7-dihydro-1H-imidazo[4,5-c]pyridin-5(4H)-yl)methanone]",500 to 1000
12,"O=C(c1ccnn1C(F)F)N1CCc2[nH]cnc2[C@@H]1c1cc2ccc(F)cn2n1 [Example 1089, (R)-(1-(difluoromethyl)-1H-pyrazol-5-yl)(4-(6-fluoropyrazolo[1,5-a]pyridin-2-yl)-6,7-dihydro-1H-imidazo[4,5-c]pyridin-5(4H)-yl)methanone]",> 5000
13,"O=C(c1nnc(-c2ccccn2)o1)N1CCc2[nH]cnc2[C@H]1c1cc2ccc(F)cn2n1 [Example 1090, (S)-(4-(6-fluoropyrazolo[1,5-a]pyridin-2-yl)-6,7-dihydro-1H-imidazo[4,5-c]pyridin-5(4H)-yl)(5-(pyridin-2-yl)-1,3,4-oxadiazol-2-yl)methanone]",500 to 1000
14,"O=C(c1nnc(-c2ccccn2)o1)N1CCc2[nH]cnc2[C@@H]1c1cc2ccc(F)cn2n1 [Example 1091, (R)-(4-(6-fluoropyrazolo[1,5-a]pyridin-2-yl)-6,7-dihydro-1H-imidazo[4,5-c]pyridin-5(4H)-yl)(5-(pyridin-2-yl)-1,3,4-oxadiazol-2-yl)methanone]",> 5000
15,"O=C(c1ccnn1C(F)F)N1CCc2[nH]cnc2[C@H]1c1cc2cc(F)ccn2n1 [Example 1092, (S)-(1-(difluoromethyl)-1H-pyrazol-5-yl)(4-(5-fluoropyrazolo[1,5-a]pyridin-2-yl)-6,7-dihydro-1H-imidazo[4,5-c]pyridin-5(4H)-yl)methanone]",500 to 1000
16,"O=C(c1ccnn1C(F)F)N1CCc2[nH]cnc2[C@@H]1c1cc2cc(F)ccn2n1 [Example 1093, (R)-(1-(difluoromethyl)-1H-pyrazol-5-yl)(4-(5-fluoropyrazolo[1,5-a]pyridin-2-yl)-6,7-dihydro-1H-imidazo[4,5-c]pyridin-5(4H)-yl)methanone]",1000 to 5000

# The remaining lines, values ahead:
row,AC50 [nM],Compound
1,< 500,"Cn1nc(Cl)nc1C(=O)N1CCc2[nH]cnc2[C@H]1c1cc2c(Cl)cccn2n1 [Example 1054, (S)-(3-chloro-1-methyl-1H-1,2,4-triazol-5-yl)(4-(4-chloropyrazolo[1,5-a]pyridin-2-yl)-6,7-dihydro-1H-imidazo[4,5-c]pyridin-5(4H)-yl)methanone]"
2,1000 to 5000,"Cn1nc(Cl)nc1C(=O)N1CCc2[nH]cnc2[C@@H]1c1cc2c(Cl)cccn2n1 [Example 1055, (R)-(3-chloro-1-methyl-1H-1,2,4-triazol-5-yl)(4-(4-chloropyrazolo[1,5-a]pyridin-2-yl)-6,7-dihydro-1H-imidazo[4,5-c]pyridin-5(4H)-yl)methanone]"
3,< 500,"Cc1cccn2nc([C@@H]3c4nc[nH]c4CCN3C(=O)c3nc(C(F)(F)F)nn3C)cc12 [Example 1056, (S)-(1-methyl-3-(trifluoromethyl)-1H-1,2,4-triazol-5-yl)(4-(4-methylpyrazolo[1,5-a]pyridin-2-yl)-6,7-dihydro-1H-imidazo[4,5-c]pyridin-5(4H)-yl)methanone]"
4,> 5000,"Cc1cccn2nc([C@H]3c4nc[nH]c4CCN3C(=O)c3nc(C(F)(F)F)nn3C)cc12 [Example 1057, (R)-(1-methyl-3-(trifluoromethyl)-1H-1,2,4-triazol-5-yl)(4-(4-methylpyrazolo[1,5-a]pyridin-2-yl)-6,7-dihydro-1H-imidazo[4,5-c]pyridin-5(4H)-yl)methanone]"
5,500 to 1000,"Cc1cccn2nc([C@@H]3c4nc[nH]c4CCN3C(=O)c3nc(C4CC4)nn3C)cc12 [Example 1058, (S)-(3-cyclopropyl-1-methyl-1H-1,2,4-triazol-5-yl)(4-(4-methylpyrazolo[1,5-a]pyridin-2-yl)-6,7-dihydro-1H-imidazo[4,5-c)pyridin-5(4H)-yl)methanone]"
6,< 500,"Cn1nc(C(F)F)nc1C(=O)N1CCc2[nH]cnc2[C@H]1c1cc2c(C(F)(F)F)cccn2n1 [Example 1060, (S)-(3-(difluoromethyl)-1-methyl-1H-1,2,4-triazol-5-yl)(4-(4-(trifluoromethyl)pyrazolo[1,5-a]pyridin-2-yl)-6,7-dihydro-1H-imidazo[4,5-c]pyridin-5(4H)-yl)methanone]"
7,< 500,"Cc1cccn2nc([C@@H]3c4nc[nH]c4CCN3C(=O)c3nc(Cl)nn3C)cc12 [Example 1076, (S)-(3-chloro-1-methyl-1H-1,2,4-triazol-5-yl)(4-(4-methylpyrazolo[1,5-a]pyridin-2-yl)-6,7-dihydro-1H-imidazo[4,5-c]pyridin-5(4H)-yl)methanone]"
8,< 500,"Cn1nc(Cl)nc1C(=O)N1CCc2[nH]cnc2[C@H]1c1cc2c(C(F)(F)F)cccn2n1 [Example 1078, (S)-(3-chloro-1-methyl-1H-1,2,4-triazol-5-yl)(4-(4-(trifluoromethyl)pyrazolo[1,5-a]pyridin-2-yl)-6,7-dihydro-1H-imidazo[4,5-c]pyridin-5(4H)-yl)methanone]"
9,< 500,"Cn1nc(C2CC2)nc1C(=O)N1CCc2[nH]cnc2[C@H]1c1cc2c(C(F)(F)F)cccn2n1 [Example 1081, (S)-(3-cyclopropyl-1-methyl-1H-1,2,4-triazol-5-yl)(4-(4-(trifluoromethyl)pyrazolo[1,5-a]pyridin-2-yl)-6,7-dihydro-1H-imidazo[4,5-c]pyridin-5(4H)-yl)methanone]"
10,< 500,"Cc1nc(C(=O)N2CCc3[nH]cnc3[C@H]2c2cc3c(C(F)(F)F)cccn3n2)n(C)n1 [Example 1082, (S)-(1,3-dimethyl-1H-1,2,4-triazol-5-yl)(4-(4-(trifluoromethyl)pyrazolo[1,5-a]pyridin-2-yl)-6,7-dihydro-1H-imidazo[4,5-c]pyridin-5(4H)-yl)methanone]"
